Read-outs that look alike come from different tables or passages of the source.

This is an account of results in patent US6552061B1, “Amino acid derivatives and anti-inflammatory agents” (Ajinomoto Co., Inc., priority 1998, dated 2003).

Common to all, as to format: cell-based
Assay [1] has as its system IL-1α. The assay is described as follows: Test for an Activity of Inhibiting IL-1α Expression (ELISA, UVB-irradiated human epidermal cells). The following applies: light or radiation study, 24 h, read-out: inhibitory rate (%) of IL-1α expression; for inhibition at 20 µM: concentration 20 μM; for inhibition at 50 µM: concentration 50 μM; for inhibition at 10 µM: concentration 10 μM; for inhibition at 500 µM: concentration 0.5 mM; for inhibition at 1000 µM: concentration 1 mM; for inhibition at 10000 µM: concentration 10 mM. As for the experimental part: Test for an Activity of Inhibiting IL-1α Expression
(§1) The test compound was added to human epidermal cells which had become confluent in a culture plate. Eighteen hours later, the culture solution was replaced with a phenol red-free medium. The cells were subjected to UV irradiation (UVB: 50 mJ/cm^2) using Dermaray M-DMR-80 (supplied by Toshiba Iryo Yohin KK). After 24 hours passed, the culture solution was recovered, and the IL-1α concentration in the culture solution was measured using IL-1α·ELISA System (supplied by Amersham Corp.). The rate of inhibition of IL-1α expression on the test compound was calculated using formula (V).
Rate (%) of inhibition of IL-1α expression={1−(B1−B3)/(B2−B3)}×100 (V)
B1: IL-1α concentration in the addition of the test compound
B2: IL-1α concentration in the non-addition of the test compound
B3: IL-1α concentration when the test compound was not added, nor was UV irradiation conducted
Background: An ELISA detects its analyte on a solid surface through an enzyme-linked reagent.

Assay [2] has as its system AP-1. Put plainly: Test for an Activity of Inhibiting AP-1 Activation (gel shift assay, UVA-irradiated human dermal fibroblasts). The following applies: AP1, light or radiation study, read-out: inhibitory rate (%) of AP-1 activation; for inhibition at 1 µM: concentration 1 μM; for inhibition at 500 µM: concentration 0.5 mM. The protocol: Test for an Activity of Inhibiting AP-1 Activation
(§2) The test compound was added to human dermal fibroblasts which had become confluent in a culture plate. Eighteen hours later, the culture solution was replaced with a phenol red-free medium. The cells were subjected to UV irradiation (UVA: 20 J/cm^2) using Dermaray M-DMR-80 (supplied by Toshiba Iryo Yohin KK). After from 4 to 5 hours passed, the cells were recovered, and the nucleoproteins were extracted in a usual manner. With respect to the resulting nucleoproteins, AP-1 activated by gel shift assay was detected. The amount of AP-1 was determined by measuring a radioactivity of an AP-1 band using a bio-imaging analyzer BAS 2000 (supplied by Fuji Photo Film). The rate of inhibition of AP-1 activation on the test compound was calculated using formula (IV).
Rate (%) of inhibition of AP-1 activation={1−(A4−A6)/(A5−A6)}×100 (IV)
A4: radioactivity of an AP-1 band in the addition of the test compound
A5: radioactivity of an AP-1 band in the non-addition of the test compound
A6: radioactivity of an AP-1 band when the test compound was not added, nor was UV irradiation conducted
(In general: In EMSA bound probe runs differently from free probe, usually more slowly.)

In assay [3] the test system is NF-κB. The assay is described as follows: Test for an Activity of Inhibiting NF-κB Activation (gel shift assay, UVB-irradiated human epidermal cells). The following applies: light or radiation study, read-out: inhibitory rate (%) of NF-κB activation; for inhibition at 10 µM: concentration 10 μM; for inhibition at 50 µM: concentration 50 μM; for inhibition at 1000 µM: concentration 1 mM; for inhibition at 2000 µM: concentration 2 mM. As for the experimental part:
Test for an Activity of Inhibiting NF-κB Activation
as §2, with “Eighteen” for “The test compound was added to human dermal fibroblasts which had become confluent in a culture plate. Eighteen”, “(UVB: 50 mJ/m^2)using” for “(UVA: 20 J/cm^2) using”, “NF-κB” for “AP-1”, “(III).” for “(IV).”
Rate (%) of inhibition of NF-κB activation={1−(A1−A3)/(A2−A3)}×100 (III)
A1: radioactivity of an NF-κB band in the addition of the test compound
A2: radioactivity of an NF-κB band in the non-addition of the test compound
A3: radioactivity of an NF-κB band when the test compound was not added, nor was UV irradiation conducted

The test system of assay [4] is collagenase. Put plainly: Test for an Activity of Inhibiting Collagenase Expression (MMP-1 ELISA, UVA-irradiated human dermal fibroblasts). The following applies: Fibroblast, light or radiation study, 24 h, concentration 10 μM, read-out: inhibitory rate (%) of collagenase expression. As for the experimental part:
Test for an Activity of Inhibiting Collagenase Expression
as §1, with “dermal fibroblasts” for “epidermal cells”, “(UVA; 20 J/cm^2)” for “(UVB: 50 mJ/cm^2)”, “collagenase” for “IL-1α”, “MMP-1α·ELISA” for “IL-1α·ELISA”, “(VI).” for “(V).”
Rate (%) of inhibition of collagenase expression={1−(B4−B6)/(B5−B6)}×100 (VI)
B4: collagenase concentration in the addition of the test compound
B5: collagenase concentration in the non-addition of the test compound
B6: collagenase concentration when the test compound was not added, nor was UV irradiation conducted

Consider `CCCCCCCCCCCCNC(=O)[C@@H](C)NCc1ccccc1O` [N-(2-hydroxybenzyl)-D-alanine lauryl amide], for which the inhibition at 20 µM is 25% in assay [1] and 31% in assay [2] (concentration 20 μM). Besides, the inhibition at 50 µM stood at 79% in assay [1] and 97% in assay [3]. For the same molecule, the inhibition at 1 µM in assay [2] is 14%. Further, in assay [3], the inhibition at 10 µM amounted to 29%.
Take `CCCCCCCCCCCCOC(=O)[C@@H](C)NCc1ccccc1O` [N-(2-hydroxybenzyl)-D-alanine lauryl ester]: in assay [1], the inhibition at 10 µM amounted to 35%. Besides, the inhibition at 50 µM in assay [1] is 31%; in assay [3], 60%. Further, the inhibition at 100 µM in assay [3] (concentration 100 μM) came out at 59%.
For the molecule `CCNC(=O)[C@H](C)NCc1ccccc1O` [N-(2-hydroxybenzyl)-L-alanine ethyl amide], the inhibition at 500 µM in assay [1] came to 81%. Moreover, the values for the inhibition at 1000 µM in assay [1], in assay [2] (concentration 1 mM) and in assay [3] were 99%, 52% and 43%, respectively. Moreover, the values for the inhibition at 2000 µM in assay [2] (concentration 2 mM) and in assay [3] were 131% and 26%, respectively.
As to `CCOC(=O)[C@H](C)NCc1ccccc1O` [N-(2-hydroxybenzyl)-L-alanine ethyl ester], the inhibition at 200 µM in assay [1] (concentration 0.2 mM) was 61%; in assay [3] (concentration 0.2 mM), 68%. The results for the inhibition at 2000 µM in assay [1] (concentration 2 mM) and in assay [3] were 100% and 77%, respectively. In assay [2], the inhibition at 500 µM is 26%.
For the molecule `CC(C)OC(=O)[C@H](C)NCc1ccccc1O` [N-(2-hydroxybenzyl)-L-alanine isopropyl ester], the inhibition at 100 µM was determined as 36% in assay [1] (concentration 0.1 mM) and 20% in assay [2] (concentration 0.1 mM). Further, in assay [1], the inhibition at 1000 µM came out at 53%. Besides, the inhibition at 500 µM in assay [2] stood at 35%.
On to `C[C@H](NCc1ccccc1O)C(=O)O` [N-(2-hydroxybenzyl)-L-alanine], for which the inhibition at 1 µM in assay [1] (concentration 1 μM) was 14%. Further, in assay [1], the inhibition at 10 µM came out at 100%. The inhibition at 1000 µM in assay [3] came to 20%.
On to `CCOC(=O)[C@H](CCCNC(=N)N)NCc1ccccc1O` [N-(2-hydroxybenzyl)-L-arginine ethyl ester], for which, in assay [1], the inhibition at 500 µM turned out to be 65%.
As for `CCCCCCCCCCCCNC(=O)[C@H](CCCNC(=N)N)NCc1ccccc1O` [N-(2-hydroxybenzyl)-L-arginine lauryl amide], in assay [3], the inhibition at 10 µM turned out to be 16% and the inhibition at 50 µM worked out at 28%.
On to `CCCCCCCCCCCCOC(=O)[C@H](CCCNC(=N)N)NCc1ccccc1O` [N-(2-hydroxybenzyl)-L-arginine lauryl ester], for which the inhibition at 10 µM in assay [4] amounted to 52%.
For the molecule `CCOC(=O)[C@H](CC(C)C)NCc1ccccc1O` [N-(2-hydroxybenzyl)-L-leucine ethyl ester], in assay [3], the inhibition at 1000 µM was 84% and the inhibition at 2000 µM was found to be 57%.
In the case of `CCOC(=O)[C@H](Cc1ccccc1)NCc1ccccc1O` [N-(2-hydroxybenzyl)-L-phenylalanine ethyl ester], the inhibition at 100 µM in assay [1] (concentration 0.1 mM) worked out at 25%.
Take `CCOC(=O)[C@@H]1CCC(=O)N1Cc1ccccc1O` [N-(2-hydroxybenzyl)-L-pyroglutamic acid ethyl ester]: in assay [1], the inhibition at 500 µM came out at 84% and the inhibition at 1000 µM came out at 55%. Moreover, in assay [3], the inhibition at 1000 µM came to 53% and the inhibition at 2000 µM amounted to 85%.
Consider `CCCCCCCCCCCCOC(=O)[C@H](CO)NCc1ccccc1O` [N-(2-hydroxybenzyl)-L-serine lauryl ester], for which the inhibition at 10 µM in assay [1] was 12%; in assay [2] (concentration 10 μM) it was 49%. Besides, the inhibition at 100 µM in assay [1] (concentration 100 μM) turned out to be 31%. In addition, the inhibition at 1 µM in assay [2] came to 43%. For the same molecule, the inhibition at 50 µM in assay [3] worked out at 79%.
For the molecule `O=C(O)[C@H](CO)NCc1ccccc1O` [N-(2-hydroxybenzyl)-L-serine], the values for the inhibition at 10000 µM in assay [1] and in assay [3] (concentration 10 mM) were 62% and 17%, respectively. The inhibition at 30000 µM in assay [1] (concentration 30 mM) amounted to 70%; in assay [3] (concentration 30 mM), 34%.
Take `CCNC(=O)[C@H](Cc1ccc(O)cc1)NCc1ccccc1O` [N-(2-hydroxybenzyl)-L-tyrosine ethyl amide]: in assay [3], the inhibition at 1000 µM came to 72% and the inhibition at 2000 µM stood at 28%.
`CCOC(=O)[C@H](Cc1ccc(O)cc1)NCc1ccccc1O` [N-(2-hydroxybenzyl)-L-tyrosine ethyl ester]: in assay [3] (concentration 0.1 mM), the inhibition at 100 µM is 64%. Further, the inhibition at 500 µM in assay [3] (concentration 0.5 mM) is 81%.
With `CCCCCCCCCCCCNC(=O)CNCc1ccccc1O` [N-(2-hydroxybenzyl)glycine lauryl amide], in assay [1], the inhibition at 20 µM was 13% and the inhibition at 50 µM is 45%.
Regarding `O=C(O)CNCc1ccccc1O` [N-(2-hydroxybenzyl)glycine], the inhibition at 5000 µM in assay [1] (concentration 5 mM) was determined as 26%; in assay [3] (concentration 5 mM), 36%. Further, in assay [1], the inhibition at 10000 µM stood at 88%.
`S=C(S)N1CCCC1` [pyrrolidinedithiocarbamate, reference compound]: the inhibition at 5 µM in assay [1] (concentration 5 μM) is -45%; in assay [3] (concentration 5 μM), -9%. Besides, the inhibition at 10 µM in assay [3] stood at 9%.
